In patent publication US12128028B2, “Heterocyclic sulfonamide derivatives and pharmaceutical uses thereof” (METRION BIOSCIENCES LIMITED, priority 2018, dated 2024):

Target: human Kv1.3 (Homo sapiens (Human), UniProt P22001)
Experiment: Kv1.3 potency evaluation, automated patch clamp electrophysiology (QPatch HT) in CHO-Kv1.3 cells
Format: cell-based
Settings: whole-cell QPatch HT, % inhibition of charge, step to +30 mV, four concentrations, N≥3 cells, read-out: hKv1.3 IC50
Procedure, shortened: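 Automated whole-cell patch clamp in CHO cells stably expressing human Kv1.3; steps from −80 to +30 mV (500 ms) at 0.067 Hz. Four cumulative concentrations after vehicle (0.1-0.3% DMSO); charge inhibition vs vehicle fitted by four-parameter logistic for IC50, N≥3 cells.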

Chain of human Kv1.3 (P22001 whole entry): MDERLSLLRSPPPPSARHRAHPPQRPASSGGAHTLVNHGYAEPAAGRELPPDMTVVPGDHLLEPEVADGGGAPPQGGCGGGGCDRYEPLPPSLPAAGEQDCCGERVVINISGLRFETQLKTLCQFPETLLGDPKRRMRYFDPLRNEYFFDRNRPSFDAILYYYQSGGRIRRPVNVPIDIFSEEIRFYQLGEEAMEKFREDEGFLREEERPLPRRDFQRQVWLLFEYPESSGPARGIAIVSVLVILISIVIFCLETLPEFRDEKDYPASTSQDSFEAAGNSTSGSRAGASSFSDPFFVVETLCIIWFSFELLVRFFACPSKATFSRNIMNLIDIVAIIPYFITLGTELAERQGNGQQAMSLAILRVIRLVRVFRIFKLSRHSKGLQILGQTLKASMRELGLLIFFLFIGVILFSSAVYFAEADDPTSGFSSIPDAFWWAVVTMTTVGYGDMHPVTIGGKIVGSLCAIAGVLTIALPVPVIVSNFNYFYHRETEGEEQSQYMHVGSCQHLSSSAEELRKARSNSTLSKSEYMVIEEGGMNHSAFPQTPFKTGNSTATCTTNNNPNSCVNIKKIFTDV

IC50: 787 nM
Compound: CC(C)CC1(C(=O)NCC2CCC2)CN=C(C23CC(N(Cc4ccc(C(F)(F)F)cc4)S(=O)(=O)c4ccc(F)cc4)(C2)C3)N1 (stereo not shown) [Example 284]
